These results are taken from US9492428B2, “Compounds, compositions, pharmaceutical compositions, and methods of use” (University of Louisville Research Foundation, Inc., priority 2011, dated 2016).

Each structure is given as a SMILES string.

What all share (assay type): cell-based, human
In experiment [1] the test system is PC3 prostate cancer cells. As to the kind of experiment: MTT cell proliferation assay in PC3. The settings on record: after three days of treatment. The protocol: FIG. 8. Cell proliferation assay. (A) DU145 or PC3 prostate cancer were plated at a density of 1,500 cells per well in 96-well plates and incubated 18 hours at 37° C. to allow adherence. They were untreated or treated by addition of different concentrations of compound I-1 (which were added directly to the medium) or vehicle (DMSO), and proliferation was measured using a 3-(4,5-dimethylthiazol-2-yl)-2,5-diphenyltetrazolium bromide MTT assay after 3 days of treatment. Points, mean of triplicate normalized samples to vehicle sample; bars, SE. (B) GI50 after 3 days of treatment. (C) Prostate cancer cells (DU145 or PC3) or a non-malignant epithelial cells (RWPE-1) were plated at a density of 1,000 cells per well in 96-well plates and incubated 18 hours at 37° C. to allow adherence. They were untreated or treated by addition of different concentrations of compound I-1 (added directly to the medium) or vehicle (DMSO), and proliferation was by MTT assay after 5 days of treatment. Points, mean of triplicate normalized samples to vehicle sample; bars, SE.
General Experimental Procedure. Compound I-1 was isolated as described in Example Set 1, above. For samples of compound I-1 used in Example Set 2, HPLC and NMR indicated a purity of at least 95%. All experiments described in Example Set 2 were repeated at least two or three times. […]

For a further experiment, the system named is PC-3 cells. As to the kind of experiment: Clonogenic assay in PC-3. As for the experimental part:
FIG. 7. Clonogenic assays in prostate cancer cells treated with compound I-1. Prostate cancer cells, DU145 (A) or PC3 (B), were plated at very low density in 6-well plates and incubated 18 h at 37° C. Cells were treated by addition of various concentrations of compound I-1 or with an equivalent volume of vehicle (DMSO), or were left untreated. After 10 days of treatment, cells were washed with cold PBS, fixed with paraformaldehyde, and stained with crystal violet solution.
Clonogenic Assay. Cells in fresh complete medium were plated at very low density (3×10^2 per well) into six-well plates for 18 h. After complete adhesion, cells were treated with compound I-1 by adding directly to the medium to give the concentration indicated in the figures. Cells were allowed to grow until visible colonies formed (10 days). Cell colonies were fixed with 4% paraformaldehyde in PBS (phosphate-buffered saline), stained with 0.25% crystal violet in 25% methanol, washed and air-dried.

The test system of another experiment is DU145 cells. As to the kind of experiment: Immunofluorescence (confocal) microscopy, α-tubulin and DAPI. The settings on record: 10 μM. As for the experimental part:
FIG. 14. Fluorescent microscopy of DU145 prostate cancer cells. DU145 cells were plated in culture dishes designed for confocal microscopy and allowed to adhere for 18 hours at 37° C. They were then for incubated for a further 24 and 48 h with 10 μM compound I-1 or 48 h with vehicle (DMSO). After that, cells were washed with cold PBS, fixed with 4% paraformaldehyde, and permeabilized with 0.1% Triton 100X. Cells were stained with 4′6-diamidino-2-phenylindole (DAPI), which binds to DNA, and with anti-α-tubulin antibody labeled with Alexa Fluor 488 to show the location of microtubules. Scale bars indicate a length of […], arrows indicate cells with evidence of aberrant mitosis, and asterisks indicate cells with apoptotic morphology.
Immunofluorescence microscopy. Cells (2.5×10^4) in fresh complete culture medium were plated on 18 mm diameter glass cover slips for 18 h. The medium was replaced with complete medium containing 10 μM compound I-1 or an equivalent volume of vehicle (DMSO) and incubated for 24 or 48 h. After incubation, cells were washed 3 times with ice-cold PBS, fixed in 4% paraformaldehyde in PBS for 30 min at room temperature, and washed three times with PBS. Cells were permeabilized for 1 min in PBS containing 0.1% Triton X-100, and washed three times with PBS. […]

Regarding `C[C@@H]1CC[C@H]2C3C(O[C@]4([C@]5(O)CC6(C)C(=O)OC5C[C@@]6(C)O)CC[C@@]31O4)[C@H]1O[C@]13CC=CC(=O)[C@]23C` (some centres unmarked) [I-1], in experiment [1], the “concentration of maximum antiproliferative activity” value stood at 10 µM. Also, in the experiment with PC-3 cells (2.5 μM, 10 days), the “effect on colony formation” value is “Inhibitory effects”. The “concentration that blocked the capacity of single cancer cells to generate colonies” value in the experiment on PC-3 cells (10 days of treatment) is no less than 5 µM. Besides, in the experiment on DU145 cells (24 h), the “cells with evidence of aberrant mitosis” value was “increased number”. Further, in the experiment with DU145 cells (48 h), the “cells with evidence of abnormal mitosis or apoptosis” value was “almost all of the cells”.
